# Assay results as given in patent US20260183297A1, “SELECTION OF PATIENTS FOR THE TREATMENT OF FADS1-MEDIATED DISEASES OR DISORDERS USING FADS-1 INHIBITORS” (AMGEN INC., priority 2022, published 2026).
# Read-outs that look alike come from different tables or passages of the source.
# Target: T1, FADS1 (Mus musculus, UniProt Q920L1)
# T1 construct: Liver from ^13C5-DGLA dosed DIO mice was collected for pharmacodynamic (PD) analysis; from tissue; host or cells: living DIO C57Bl/6 mice; 13C5-DGLA to 13C5-AA conversion read in liver (A4) or blood plasma (A5)
# T1 sequence (Q920L1 1-447): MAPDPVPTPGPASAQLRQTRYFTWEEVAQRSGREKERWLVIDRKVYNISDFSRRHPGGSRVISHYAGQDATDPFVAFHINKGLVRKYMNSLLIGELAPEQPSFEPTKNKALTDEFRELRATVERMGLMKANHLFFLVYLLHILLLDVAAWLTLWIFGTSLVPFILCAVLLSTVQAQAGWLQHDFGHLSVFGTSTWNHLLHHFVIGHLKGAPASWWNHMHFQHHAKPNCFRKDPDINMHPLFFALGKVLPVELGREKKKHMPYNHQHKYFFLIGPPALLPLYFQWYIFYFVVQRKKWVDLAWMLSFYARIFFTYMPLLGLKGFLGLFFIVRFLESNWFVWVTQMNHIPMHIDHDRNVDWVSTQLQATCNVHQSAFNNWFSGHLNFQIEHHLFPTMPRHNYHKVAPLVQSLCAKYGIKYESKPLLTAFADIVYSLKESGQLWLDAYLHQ
# Assay: In vivo FADS1 activity measurement using the liver (13C5-DGLA to 13C5-AA conversion)
# Details: for IC50: liver of DIO mice, unbound plasma concentration, read-out: Free (unbound) in vivo IC50
# Protocol: Mice were then dosed by intraperitoneal injection with a solution comprising of a mixture of 0.1 ml solution of ^13C5-DGLA (2 mM in 18.42 mM Na2CO3 buffer). Necropsy were performed at 30 minutes post ^13C5-DGLA dosing. Liver from ^13C5-DGLA dosed DIO mice was collected for pharmacodynamic (PD) analysis and EDTA plasma was collected for compound exposure determination. For PD analysis, 150 mg of frozen liver tissue were premixed with ALA-D14 as an internal standard. Liver samples were homogenized and extracted twice with chloroform/methanol (2:1) solution. The organic phases for the two extractions were pooled and evaporated to dryness under nitrogen gas. The liver extract was resuspended in 200 μl 2N NaOH and saponified at 65° C. for 1 hour. After cooling to room temperature, 100 μl of formic acid was added and the mixture was subjected to two consecutive extractions with a chloroform:methanol (2:1) solution. The pooled organic phases were evaporated to dryness under nitrogen gas and resuspended in a solution containing acetonitrile and methanol at a ratio of 1:1. The extracts were then analyzed by LC/MS/MS for the following analytes: ^13C5-DGLA, ^13C5-AA, with ALA-d14 as the internal standard. The sample (20 μl) was injected onto a Poroshell 120 EC-C18 3.0×50 mm, 1.9 μm id column (Agilent, Santa Clara, CA). The analyte peak areas were quantified using the Analyst software (SCIEX, Framingham, […]). The residual in vivo FADS1 activity was calculated by taking the percent of substrate to product conversion normalized to the vehicle group to determine the percent of control (POC) and the percent inhibition relative to control (vehicle).
# To determine the degree of FADS1 inhibition, the in vivo FADS1 activity as the percent of conversion calculated using the following equation: […]
# The data were then normalized to the vehicle group to determine the percent of inhibition relative to control (vehicle) by the following equation: […]
# To calculate the in vivo potency, dose response graphs were generated by plotting the plasma concentration of the test compound determined from the PK analysis on the abscissa, against the percent of control (POC, relative to vehicle) of the FADS1 activity for each mouse. The data points were then fitted by using the log(inhibitor) vs response nonlinear regression algorithm using GraphPad Prism (version 8.4.3, San Diego CA) to calculate the in vivo IC50 (total).
# Free (unbound) IC50 and IC90 values were calculated by first calculating the unbound compound concentration in the plasma by multiplying the plasma concentration of test compound with the fraction unbound (fu) value in mouse plasma determined in the plasma protein binding study. A dose response curve was used to determine the unbound IC50 and IC90 by plotting the unbound plasma concentration of the compound on the abscissa, against the percent of control (POC, relative to vehicle) of FADS1 activity for each mouse. The data points were then fitted with a log (inhibitor) versus response nonlinear regression algorithm using GraphPad Prism (version 8.4.3, San Diego, CA) to calculate the in vivo IC50 (Free).
# [1] = DIO mice, single oral dose 10 mg/kg, 24 hours after dosing
# [2] = DIO mice, single oral dose 30 mg/kg, 24 hours after dosing
# [3] = mouse, DIO mice, single oral dose 10 mg/kg, 24 hours after dosing, read-out: Liver Avg % Inhibition
# [4] = mouse, DIO mice, single oral dose 30 mg/kg, 24 hours after dosing, read-out: Liver Avg % Inhibition
IC50 [nM],"inhibition at 10 mg/kg (mouse, DIO mice, 10 mg/kg daily oral, after 54 days of treatment, read-out: FADS1 activity inhibited (residual liver FADS1 activity)) [%]","inhibition at 30 mg/kg (mouse, DIO mice, 30 mg/kg daily oral, after 54 days of treatment, read-out: FADS1 activity inhibited (residual liver FADS1 activity)) [%]",Liver Avg % Conversion [1] [%],Liver Avg % Conversion [2] [%],"Liver Avg % Conversion (DIO mice, single oral dose 50 mg/kg, 24 hours after dosing) [%]",inhibition at 10 mg/kg [3] [%],inhibition at 30 mg/kg [4] [%],"inhibition at 50 mg/kg (mouse, DIO mice, single oral dose 50 mg/kg, 24 hours after dosing) [%]","Liver Avg % Conversion (DIO mice, single oral dose 3 mg/kg, 24 hours after dosing) [%]","inhibition at 3 mg/kg (mouse, DIO mice, single oral dose 3 mg/kg, 24 hours after dosing) [%]",Compound
2,90,93.6,,,,,,,,,"COc1ccn2c(=O)c(-c3cnn(CC(F)(F)C(F)(F)F)c3)c(C(F)(F)F)nc2c1 [Compound A, 8-methoxy-3-(1-(2,2,3,3,3-pentafluoropropyl)-1H-pyrazol-4-yl)-2-(trifluoromethyl)-4H-pyrido[1,2-a]pyrimidin-4-one]"
4,,,2.2,1.5,1.4,97.4,98.2,98.3,,,COc1ccn2c(=O)c(-c3cnn(CC(F)(F)C(F)(F)F)c3)c(C(F)(F)F)nc2n1 [Compound B]
4,,,4.3,1.5,,94.8,98.2,,14.2,83,N#Cc1ccn2c(=O)c(-c3cnn(CC(F)(F)C(F)(F)F)c3)c(C(F)(F)F)nc2c1 [Compound C]
